Earlier results, collected in publication PMC8781228 (Bioorganic & medicinal chemistry letters, 2017).

How the values were obtained:
S1PR2 [1] = settings: [33P]S1P competitive binding assay
S1PR2 [2] = settings: read-out: EC50 (allosteric S1PR2 selective agonist)
S1PR4 = settings: [γ-35S]GTPγS binding assay
S1PR3 = settings: [γ-35S]GTPγS binding assay
S1PR5 = settings: [γ-35S]GTPγS binding assay
S1PR2 [3] = settings: [γ-35S]GTPγS binding assay
S1PR1 = settings: [γ-35S]GTPγS binding assay

Row | EC50 (S1PR2 [2]) [nM] | Structure (SMILES) | competition with S1P (S1PR2 [1]) | activity at S1PR4 (S1PR4) | activity at S1PR3 (S1PR3) | activity at S1PR5 (S1PR5) | activity at S1PR2 (S1PR2 [3]) | activity at S1PR1 (S1PR1)
1 | 480 | Cc1cc(C(=O)Cn2cc(C#N)ccc2=O)c(C)n1Cc1ccccc1 [CYM-5520] | not competitive with S1P | – | – | – | – | –
2 | – | CCCCCCCCc1ccc(CCC(N)(CO)CO)cc1 [FTY720, fingolimod] | – | potent agonist | potent agonist | potent agonist | inactive | potent agonist
